Measurements published in patent US12624018B1, “Inhibitors of RIPK2 and medical uses thereof” (Odyssey Therapeutics, Inc., priority 2022, dated 2026).
Like-named read-outs stand apart in the source and are kept apart here. Values belong to the compound of their own block, whether it stands above or below them.

Columns and labels:
RIPK2 enzyme = biological target: T1, RIPK2 enzyme (Homo sapiens, UniProt O43353); assay: RIPK2 inhibition (ADP-Glo Kinase Assay); assay type: biochemical; details: RIPK2 5 nM, ATP 150 μM, MBP substrate, read-out: RIPK2 IC50
T1 construct: purchased Carna 09-128
Procedure, shortened: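 Human RIPK2 (5 nM) preincubated with compound 30 min at room temperature in 50 mM HEPES pH 7.5, 10 mM MgCl2, 2 mM DTT, 1 mM EGTA, 0.01% Brij-35, 0.05% BSA; native swine MBP as substrate. ADP formed quantified by ADP-Glo luminescence; percent inhibition relative to DMSO and no-enzyme controls.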

human NOD2 signaling = assay: Inhibition of human NOD2 signaling in HEK-Blue-hNOD2 cells (L18-MDP stimulated, SEAP reporter); assay type: cell-based
Procedure, shortened: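 HEK-Blue-hNOD2 cells (HEK293 with NOD2 and SEAP reporter), 12500/well, treated with 10-point 3-fold compound dilutions plus L18-MDP 0.5 ng/mL final, 24 h at 37 °C. Supernatant SEAP read with QUANTI-Blue after 3 h at 620 nm; IC50 by 4-parameter fit vs DMSO±L18-MDP controls.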

[1] = biological target: T2, RIPK2 and XIAP protein-protein interaction (Homo sapiens, UniProt O43353); assay: Inhibition of the interaction of RIPK2 with XIAP (NanoBRET in HEK293T cells); assay type: cell-based; details: for IC50: RIPK2 HaloTag / XIAP NanoLuc, read-out: NanoBRET Scaffolding IC50
T2 construct: the N-terminus of full-length RIPK2 was appended with the HaloTag fusion protein; expressed in transfected cells; host or cells: HEK293T
Description: An assay measuring the RIPK2 and XIAP protein-protein interaction was generated using the NanoBRET protein:protein interaction system (Promega) which measures the energy transfer from a bioluminescent protein donor (NanoLuc fusion protein) to a fluorescent protein acceptor (Halotag fusion protein). In this assay, the C-terminus of full-length XIAP was appended with the NanoLuc fusion protein and the N-terminus of full-length RIPK2 was appended with the HaloTag fusion protein. Assay medium consisted of Opti-MEM I reduced serum medium with no phenol red plus 4% heat inactivated FBS. Transfection reagents were combined in a microfuge tube as follows: 400 μL of assay medium, 8 μL of vector with N-terminus of RIPK2 HaloTag fusion protein (vector concentration at 1 μg/μL), 0.8 μL of vector with C-terminus of XIAP NanoLuc fusion protein (vector concentration at 1 μg/μL), and 24 μL of FuGENE HD transfection reagent (Promega, catalogue number E2312). […] Test compounds were prepared into a 10 mM DMSO solution and were serially diluted into 10 points using a 3-fold dilution in a 384 well plate using a TECAN EV0200.
Method: HEK293T cells were transfected with the RIPK2 HaloTag fusion and XIAP NanoLuc fusion vectors in suspension. […] Transfection reagents were pre-mixed and incubated at room temperature for 30 minutes. Then the total transfection reagent mixture was added dropwise to the 16 mL cell suspension and mixed gently. 40 μL of the cells and transfection reagent suspension was plated into a white 384 well plate and incubated at 37° C. in a CO2 incubator for 24 hours. […] Lastly, a 3× solution of NanoBRET Nano-Glo substrate in Opti-MEM I reduced serum media (no phenol red; 20 μL total volume) was added to each well and incubated for 2-3 minutes at room temperature. The plate was then measured using 460 nm filter (donor emission) and 618 nm filter (acceptor emission) in an EnVision multimode plate reader (PerkinElmer). The NanoBRET ratio values were determined by dividing the acceptor emission value by the donor emission value for each sample.

[2] = Homo sapiens, HEK-Blue hNOD2, HEK-Blue-hNOD2 cells, NOD2 ligand stimulation, SEAP reporter, read-out: hNOD2 IC50

T2 sequence (O43353 whole entry, the tested form may be a part): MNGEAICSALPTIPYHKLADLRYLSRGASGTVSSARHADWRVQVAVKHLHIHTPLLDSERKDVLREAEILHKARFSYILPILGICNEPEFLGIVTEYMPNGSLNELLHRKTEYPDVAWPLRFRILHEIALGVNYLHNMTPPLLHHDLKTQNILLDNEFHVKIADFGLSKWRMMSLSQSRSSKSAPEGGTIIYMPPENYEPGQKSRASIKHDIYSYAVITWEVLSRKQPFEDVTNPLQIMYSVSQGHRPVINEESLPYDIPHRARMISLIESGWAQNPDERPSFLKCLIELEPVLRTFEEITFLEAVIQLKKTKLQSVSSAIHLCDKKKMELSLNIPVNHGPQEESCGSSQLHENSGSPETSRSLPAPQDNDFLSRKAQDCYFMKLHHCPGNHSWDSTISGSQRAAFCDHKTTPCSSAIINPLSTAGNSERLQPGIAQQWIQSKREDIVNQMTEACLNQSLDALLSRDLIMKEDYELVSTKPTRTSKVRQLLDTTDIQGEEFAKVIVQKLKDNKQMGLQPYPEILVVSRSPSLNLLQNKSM
T1 sequence (O43353 1-299 limits assumed): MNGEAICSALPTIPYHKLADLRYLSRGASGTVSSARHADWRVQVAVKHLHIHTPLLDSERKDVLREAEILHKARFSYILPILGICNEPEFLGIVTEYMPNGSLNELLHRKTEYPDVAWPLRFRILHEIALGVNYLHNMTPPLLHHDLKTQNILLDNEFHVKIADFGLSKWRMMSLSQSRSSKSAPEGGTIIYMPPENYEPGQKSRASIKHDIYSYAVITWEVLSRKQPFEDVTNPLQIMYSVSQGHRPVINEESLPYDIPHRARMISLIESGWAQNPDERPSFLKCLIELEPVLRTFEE

Compound: Cc1cc(CC(=O)Nc2cnn(C34CC(C3)C4)c2)c(F)cc1Oc1ccnc2ccc(C(N)=O)cc12 [Compound 501, 4-(4-(2-((1-(bicyclo[1.1.1]pentan-1-yl)-1H-pyrazol-4-yl)amino)-2-oxoethyl)-5-fluoro-2-methylphenoxy)quinoline-6-carboxamide]
IC50 (RIPK2 enzyme): < 2.5 nM
IC50 (human NOD2 signaling; [2]): 2.2 nM
IC50 [1]: 62.9 nM

Compound: Cc1cc(CC(=O)Nc2cnn(C(C)(C)C)c2)c(F)cc1Oc1ccnc2ccc(S(=N)(=O)C3CC3)cc12 (single isomer, unassigned) [Compound 467, N-(1-(tert-butyl)-1H-pyrazol-4-yl)-2-(4-((6-(cyclopropane-sulfonimidoyl)quinolin-4-yl)oxy)-2-fluoro-5-methylphenyl) acetamide]
IC50 (RIPK2 enzyme): < 2.5 nM
IC50 (human NOD2 signaling; HEK-Blue-hNOD2 cells, NOD2 ligand stimulation, SEAP reporter, read-out: hNOD2 IC50): 1.7 nM
IC50 [1]: 30.2 nM

Compound: CC(C)(C)n1cc(NC(=O)Cc2cc(Cl)c(Oc3ccnc4ccc(S(=O)(=O)C5CC5)cc34)cc2F)cn1 [Compound 464, N-(1-(tert-butyl)-1H-pyrazol-4-yl)-2-(5-chloro-4-((6-(cyclopropylsulfonyl)quinolin-4-yl)oxy)-2-fluorophenyl)acetamide]
IC50 (RIPK2 enzyme): < 2.5 nM
IC50 (human NOD2 signaling; [2]): 0.5 nM
IC50 [1]: 7.5 nM

Compound: Cc1cc(CC(=O)Nc2cnn(C(C)(C)C)c2)c(F)cc1Oc1ccnc2ccc(C(=O)N3C[C@@H]4C[C@H]3CN4)cc12 [Compound 471, 2-(4-((6-((1S,4S)-2,5-diazabicyclo[2.2.1]heptane-2-carbonyl)quinolin-4-yl)oxy)-2-fluoro-5-methylphenyl)-N-(1-(tert-butyl)-1H-pyrazol-4-yl)acetamide]
IC50 (RIPK2 enzyme): < 2.5 nM
IC50 (human NOD2 signaling; [2]): 9.9 nM
IC50 [1]: 1020 nM

Compound: Cc1cc(CC(=O)Nc2cnn(C(C)(C)C)c2)c(F)cc1Oc1ccnc2ccc(-c3c[nH]nc3C)cc12 [Compound 479, N-(1-(tert-butyl)-1H-pyrazol-4-yl)-2-(2-fluoro-5-methyl-4-((6-(3-methyl-1H-pyrazol-4-yl)quinolin-4-yl)oxy)phenyl)acetamide]
IC50 (RIPK2 enzyme): < 2.5 nM
IC50 (human NOD2 signaling; [2]): 1.4 nM
IC50 [1]: 5.8 nM

Compound: Cc1cc(CC(=O)Nc2cnn(C(C)(C)C)c2)c(F)cc1Oc1ccnc2ccc(-c3ncncc3C)cc12 [Compound 477, N-(1-(tert-butyl)-1H-pyrazol-4-yl)-2-(2-fluoro-5-methyl-4-((6-(5-methylpyrimidin-4-yl)quinolin-4-yl)oxy)phenyl)acetamide]
IC50 (RIPK2 enzyme): < 2.5 nM
IC50 (human NOD2 signaling; [2]): 5.4 nM
IC50 [1]: 38.7 nM

Compound: CC(C)(C)S(=O)(=O)c1cc2c(Nc3ccc4scnc4c3)ncnc2cc1OCCOP(=O)(O)O [GSK 2983559, reference compound]
IC50 (human NOD2 signaling; Homo sapiens, HEK-Blue hNOD2, 24 h, HEK-Blue-hNOD2 cells, L18-MDP 0.5 ng/mL, 24 h, read-out: hNOD2 inhibition IC50): > 10000 nM
inhibition of the RIPK2 and XIAP protein-protein interaction ([1]; NanoBRET): no inhibition

Compound: Cc1ccnnc1-c1ccc2nccc(Oc3cc(F)c(CC(=O)Nc4cnn(C(C)(C)C)c4)cc3Cl)c2c1 [Compound 520, N-(1-(tert-butyl)-1H-pyrazol-4-yl)-2-(5-chloro-2-fluoro-4-((6-(4-methylpyridazin-3-yl)quinolin-4-yl)oxy)phenyl)acetamide]
IC50 (RIPK2 enzyme): < 2.5 nM
IC50 (human NOD2 signaling; [2]): 0.7 nM

Compound: Cc1cc(CC(=O)Nc2cnn(C(C)(C)C)c2)c(F)cc1Oc1ccnc2ccc(-c3nnc(CO)cc3C)cc12 [Compound 521, N-(1-(tert-butyl)-1H-pyrazol-4-yl)-2-(2-fluoro-4-((6-(6-(hydroxymethyl)-4-methylpyridazin-3-yl)quinolin-4-yl)oxy)-5-methylphenyl)acetamide]
IC50 (RIPK2 enzyme): < 2.5 nM
IC50 (human NOD2 signaling; [2]): 2.2 nM

Compound: Cc1cc(CC(=O)Nc2cnn(C(C)(C)C)c2)c(F)cc1Oc1ccnc2ccc(-c3c(C)ncnc3C)cc12 [Compound 526, N-(1-(tert-butyl)-1H-pyrazol-4-yl)-2-(4-((6-(4,6-dimethylpyrimidin-5-yl)quinolin-4-yl)oxy)-2-fluoro-5-methylphenyl)acetamide]
IC50 (RIPK2 enzyme): < 2.5 nM
IC50 (human NOD2 signaling; [2]): 16.1 nM

Continued, values first:

IC50 (RIPK2 enzyme): < 2.5 nM
IC50 (human NOD2 signaling; [2]): 3.1 nM
IC50 [1]: 34.4 nM
Compound: Cc1cc(CC(=O)Nc2cnn(C(C)(C)C)c2)c(F)cc1Oc1ccnc2ccc(C(=O)NC34CC(C3)C4)cc12 [Compound 513, N-(bicyclo[1.1.1]pentan-1-yl)-4-(4-(2-((1-(tert-butyl)-1H-pyrazol-4-yl)amino)-2-oxoethyl)-5-fluoro-2-methylphenoxy)quinoline-6-carboxamide]

IC50 (RIPK2 enzyme): < 2.5 nM
IC50 (human NOD2 signaling; [2]): 2.2 nM
IC50 [1]: 73.6 nM
Compound: CNC(=O)c1ccc2nccc(Oc3c(C)cc(CC(=O)Nc4cnn(C(C)(C)C)c4)cc3C)c2c1 [Compound 506, 4-(4-(2-((1-(tert-butyl)-1H-pyrazol-4-yl)amino)-2-oxoethyl)-2,6-dimethylphenoxy)-N-methylquinoline-6-carboxamide]

IC50 (RIPK2 enzyme): < 2.5 nM
IC50 (human NOD2 signaling; [2]): 3.5 nM
IC50 [1]: 128 nM
Compound: Cc1cc(CC(=O)Nc2cnn(C(C)(C)C)c2)cc(C)c1Oc1ccnc2ccc(C(N)=O)cc12 [Compound 505, 4-(4-(2-((1-(tert-butyl)-1H-pyrazol-4-yl)amino)-2-oxoethyl)-2,6-dimethylphenoxy)quinoline-6-carboxamide]

IC50 (RIPK2 enzyme): < 2.5 nM
IC50 (human NOD2 signaling; [2]): 1.1 nM
IC50 [1]: 37.2 nM
Compound: Cc1cc(CC(=O)Nc2cnn(C(C)(C)C)c2)c(F)cc1Oc1ccnc2ccc(C(F)(F)C(N)=O)cc12 [Compound 572, 2-(4-(4-(2-((1-(tert-butyl)-1H-pyrazol-4-yl)amino)-2-oxoethyl)-5-fluoro-2-methylphenoxy)quinolin-6-yl)-2,2-difluoroacetamide]

IC50 (RIPK2 enzyme): < 2.5 nM
IC50 (human NOD2 signaling; [2]): 0.1 nM
Compound: [2H]C([2H])([2H])NC(=O)c1ccc2nccc(Oc3ccc(CC(=O)Nc4cnn(C(C)(C)C)c4)cc3C)c2c1 [Compound 491, 4-(4-(2-((1-(tert-butyl)-1H-pyrazol-4-yl)amino)-2-oxoethyl)-2-methylphenoxy)-N-(methyl-d3)quinoline-6-carboxamide]

IC50 (RIPK2 enzyme): < 2.5 nM
IC50 (human NOD2 signaling; [2]): 12.4 nM
Compound: Cc1cc(CC(=O)Nc2cnn(C(C)(C)C)c2)ccc1Oc1ccnc2ccc(C3(C(N)=O)CCC3)cc12 [Compound 604, 1-(4-(4-(2-((1-(tert-butyl)-1H-pyrazol-4-yl)amino)-2-oxoethyl)-2-methylphenoxy)quinolin-6-yl)cyclobutane-1-carboxamide]

IC50 (RIPK2 enzyme): < 2.5 nM
IC50 (human NOD2 signaling; [2]): 4 nM
Compound: CNC(=O)c1ccc2nccc(Oc3ccc(CC(=O)Nc4cnn(C(C)(C)C)c4)cc3C(F)F)c2c1 [Compound 463, 4-(4-(2-((1-(tert-butyl)-1H-pyrazol-4-yl)amino)-2-oxoethyl)-2-(difluoromethyl)phenoxy)-N-methylquinoline-6-carboxamide]

IC50 (RIPK2 enzyme): < 2.5 nM
IC50 (human NOD2 signaling; [2]): 0.4 nM
Compound: Cc1c(Oc2ccnc3ccc(S(=N)(=O)C(C)C)cc23)ccc(CC(=O)Nc2cnn(C(C)(C)C)c2)c1F (single isomer, unassigned) [Compound 537, N-(1-(tert-butyl)-1H-pyrazol-4-yl)-2-(2-fluoro-3-methyl-4-((6-(propan-2-ylsulfonimidoyl)quinolin-4-yl)oxy)phenyl) acetamide]

IC50 (RIPK2 enzyme): < 2.5 nM
IC50 (human NOD2 signaling; [2]): 2 nM
Compound: [2H]C([2H])([2H])C(n1cc(NC(=O)Cc2cc(C)c(Oc3ccnc4ccc(C(=O)NC)cc34)cc2F)cn1)(C([2H])([2H])[2H])C([2H])([2H])[2H] [Compound 622, 4-(5-fluoro-2-methyl-4-(2-((1-(2-(methyl-d3)propan-2-yl-1,1,1,3,3,3-d6)-1H-pyrazol-4-yl)amino)-2-oxoethyl)phenoxy)-N-methylquinoline-6-carboxamide]

IC50 (RIPK2 enzyme): 2.8 nM
IC50 (human NOD2 signaling; [2]): 17.5 nM
Compound: Cc1cc(CC(=O)Nc2cnn(C(C)(C)C)c2)ccc1Oc1ccnc2ccc(C(C)(O)C(N)=O)cc12 (single isomer, unassigned) [Compound 615, 2-(4-(4-(2-((1-(tert-butyl)-1H-pyrazol-4-yl)amino)-2-oxoethyl)-2-methylphenoxy)quinolin-6-yl)-2-hydroxypropanamide]
